Source: PubChem BioAssay (NCI)
“And” between values parts separate entries of the source, which are not always exact repeats. Equal entries are not always repeated.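 Following 48 hours of exposure in 96-well plates, responses at five concentrations were used to interpolate endpoints linearly. GI50: concentration for 50% inhibition of growth. TGI is the concentration that stops growth completely.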

The compounds below were run on MDA-MB-468 breast (assay: NCI anticancer screen, dose series, 48 h).
With `CN1CCc2c(sc3ncnc(N/N=C/c4ccc(Cl)c(Cl)c4)c23)C1` the GI50 was 10.9 µM and the TGI was 25.8 µM. `N#CC1CCc2c(c(-c3cn[nH]c3C(F)(F)F)nc3c(F)cc4[nH]ncc4c23)C1` (stereo not drawn) showed a GI50 of 2.19 µM and a TGI of 6.23 µM. `C=C1C(=O)O[C@H]2[C@H]1CC/C(COC(=O)/C=C/c1c[nH]c3ccccc13)=C\CC[C@@]1(C)O[C@@H]21` showed a GI50 of 0.196 µM and a TGI of 0.404 µM. In the case of `O[C@H](CN1CC1)[C@@H](O)CN1CC1`, the GI50 is reported as 0.389 µM and the TGI is reported as 2.65 µM. `COc1cc(CNC(=O)CCSc2nc3ccccc3c(=O)n2Cc2cc(OC)c(OC)c(OC)c2)cc(OC)c1OC` was tested, and the GI50 was 2.35 µM and the TGI was 9.67 µM. In the case of `CC[C@H](C)[C@H](NC(=O)c1nccn1C)C(=O)N(C)[C@H](C[C@@H](OC(C)=O)c1nc(C(=O)N[C@@H](Cc2ccccc2)C[C@H](C)C(=O)OC)cs1)C(C)C`, the GI50 is reported as 0.427 µM and the TGI is reported as over 33.3 µM. `C=C1C[C@@H]2[C@H](CC[C@]3(C)C(=O)CC[C@@H]23)[C@@]2(C)C=CC(=O)C=C12` showed a GI50 of 14.6 µM and a TGI of 65.2 µM. In the case of `Cc1ccc(/C=C2\CN(Cc3cn(CCNc4ccnc5cc(Cl)ccc45)nn3)C/C(=C\c3ccc(C)cc3)C2=O)cc1`, the GI50 is reported as 1.62 µM and the TGI is reported as 3.72 µM. `FC(F)(F)c1cc(NC2=NCCN=C(Nc3cc(C(F)(F)F)cc(C(F)(F)F)c3)SS2)cc(C(F)(F)F)c1` was tested, and the GI50 was 2.07 µM and the TGI was 7.45 µM. With `NC(=S)N/N=C\c1nccc2c(C(F)(F)C(F)(F)C(F)(F)F)cccc12` the GI50 was 0.04 µM and the TGI was 0.262 µM. `Cc1nc2sc(C(=O)Nc3cccc(Cl)c3C)c(N)c2cc1C(C)O` (stereo not drawn) showed a GI50 of 0.0712 µM and a TGI of 4.44 µM. With `C=C(C)[C@@H]1CC[C@]2(C)[C@H](CC=C3[C@@H]4[C@H](C)[C@@H](C)CC[C@]4(CO)CC[C@]32C)[C@@]1(C)CCCN` the GI50 was 0.819 µM and the TGI was 1.66 µM. Work on `O=C(c1ccccc1)c1ccccc1C(=O)c1ccccc1` yielded a GI50 of 28.7 µM and a TGI of over 100 µM. `CCC(=O)OC1=CN2C(=NC(c3ccc(N)cc3)=CC2c2cc(OC)c(OC)c(OC)c2)S1` (stereo not drawn) showed a GI50 of 2.1 µM and a TGI of 6.32 µM. With `CC(C)(F)C[C@H](N[C@@H](c1ccc(-c2ccc(S(C)(=O)=O)cc2)cc1)C(F)(F)F)C(=O)NC1(C#N)CC1` the GI50 was 54.4 µM and > 100 µM and the TGI was 55 µM and > 100 µM. Work on `CS(=O)(=O)Nc1cc(-c2ccc3ncnc(Nc4cccc(Cl)c4F)c3c2)cnc1Cl` yielded a GI50 of 1.28 µM and a TGI of 3.44 µM. With `Brc1ccc2c(c1)c(-c1nc(-c3c[nH]c4ncccc34)cs1)cn2CCCN1CCCCC1` the GI50 was 1.7 µM and the TGI was 3.25 µM. Work on `O=C(O)c1ccc2cccnc2c1O` yielded a GI50 of 1.41 µM and a TGI of 6.5 µM. For `Cn1c(O)c(N=NC(N)=S)c2ccccc21`, the GI50 was 20.4 µM and the TGI was over 100 µM. `N#Cc1ncc(N2C(=O)C3(CCC3)N(c3ccc(OC4CCNCC4)nc3)C2=S)cc1C(F)(F)F` gave a GI50 of 9.8 µM and a TGI of 24.6 µM. Work on `Cc1[nH]n(-c2ccccc2)c(=O)c1C(=O)c1ccccc1` yielded a GI50 of 17.5 µM and a TGI of over 25 µM. Work on `C[C@H]1CC2=CC(=O)CC[C@]2(C)[C@H]2CC[C@@]3(C)[C@@H](CC[C@]3(C)O)[C@H]12` yielded a GI50 of 33.9 µM and a TGI of over 100 µM. `O=c1oc2cc(OS(=O)(=O)c3ccccc3)ccc2c2c1CCCCC2` was tested, and the GI50 was 2.85 µM and the TGI was over 100 µM. `Cc1cc(Cl)ccc1NC(=O)NC(C)(C)COC(=O)Nc1cccc(Cl)c1` showed a GI50 of 4.61 µM and a TGI of 36 µM. For `CC1(C)N=C(N)N=C(N)N1c1ccc(OCCCCNC(=O)c2ccc(S(=O)(=O)F)cc2)c(Cl)c1`, the GI50 was 18.4 µM and the TGI was over 100 µM. `C#CCOc1cccc(Nc2ncc3ncn(C4CCN(C(=O)CCl)C4)c3n2)c1` (stereo not drawn) showed a GI50 of 19.7 µM and a TGI of over 62.5 µM. Compound `c1cc2ccc1CNCCN1CCNCc3ccc(cc3)Oc3ccc(cc3)CNCCN(CCNCc3ccc(cc3)O2)CCNCc2ccc(cc2)Oc2ccc(cc2)CNCC1` has a GI50 of 0.673 µM and a TGI of 2.09 µM. Compound `OC1CCN(CCCOc2c3ccccc3nc3c2oc2ccc(Cl)cc23)CC1` has a GI50 of 1.61 µM and a TGI of 5.71 µM. For `Cc1ccc2cnc(N)c(C#Cc3cncc(C(=O)Nc4ccc(CN5CCN(C)CC5)c(C(F)(F)F)c4)c3)c2c1`, the GI50 was 0.662 µM and the TGI was 1.47 µM. `COc1ccc(S(=O)(=O)n2c3ccccc3n3ncc(-c4nnc(C)o4)c23)cc1` gave a GI50 of 0.266 µM and a TGI of 5.49 µM. Work on `NS(=O)(=O)c1ccc(Nc2nc(N/N=C/c3ccccn3)nc(Nc3ccccc3)n2)cc1` yielded a GI50 of 0.318 µM and a TGI of 2.01 µM. `CCN(CC)CCOc1nc2cc(OC)c(OC)cc2c2c1-c1ccc(OC)cc1C2=O` showed a GI50 of 10.1 µM and a TGI of 23.1 µM. Work on `O=C(Nc1cccc([N+](=O)[O-])c1)c1cc2ccccc2cc1O` yielded a GI50 of 2.32 µM and a TGI of 17.5 µM. Work on `O=C(Nc1ccc(-c2ccnc(Nc3ccc(N4CCOCC4)cc3)n2)cc1)C1CCCN1` (stereo not drawn) yielded a GI50 of 10.2 µM and a TGI of 26.3 µM. In the case of `O=S1(=O)CC(Br)C(Br)C1` (stereo not drawn), the GI50 is reported as 1.39 µM and the TGI is reported as 3.82 µM. In the case of `CCCNc1cccc(-n2ncc3c(N/N=C/c4ccncc4)ncnc32)c1`, the GI50 is reported as 0.768 µM and the TGI is reported as over 25 µM. Compound `O=c1[nH]cnc2nc(-c3ccc(N(CCCl)CCCl)cc3)[nH]c12` has a GI50 of over 100 µM and a TGI of over 100 µM. For `Cc1ccc(S(=O)(=O)c2ccsc2N)cc1`, the GI50 was 36.7 µM and the TGI was over 100 µM. With `COc1cc2c(cc1O)CC[C@@H]1C2CC[C@@]2(C)C1CC[C@@H]2O` (stereo partly drawn) the GI50 was 31.1 µM and the TGI was over 100 µM.
